The record followed here is patent US12331121B2, “Efflux pump-cancer antigen multi-specific antibodies and compositions, reagents, kits and methods related thereto” (William Robert Arathoon Living Trust Dated August 29, 2016, priority 2019, dated 2025).

One test deals with HeyT30 cells. The test can be described thus: HeyT30 tumors in mice. Type of test: in vivo. The following applies: FIG. 19. An excerpt: The BisP1.1 bispecific antibody was efficacious against two additional multidrug resistant (MDR) cancer cell lines in xenograft studies. The A2780ADR MDR cancer cell line expresses both CD47 and ABCB1. The HeyT30 MDR cancer cell line also expresses both CD47 and ABCB1 but at a lower level compared to A2780ADR cells (FIGS. 16 and 17). Both the A2780ADR and the HeyT30 cell lines are of ovarian origin. PE-conjugated, commercially available anti-MDR1 and anti-CD47 reagent antibodies were used; for MDR1, Biolegend Cat. No. 348606 and, CD47, Biolegend Cat. No. 323108.
A2780ADR MDR cancer cell line and HeyT30 MDR cancer cell line were injected into mice according to protocols described in Example 3. Mice were treated with BisP1.1 bispecific antibody with or without paclitaxel.

The next test concerns cynomolgus RBCs. The test can be described thus: Binding to cynomolgus erythrocytes. The following applies: FIG. 22B; in contrast to anti-CD47 5F9.
In a further test the test system is MES-SA/Dx5 cells. Put plainly: MES-SA/Dx5 subcutaneous tumors in nude mice. The test is classed as in vivo. The protocol:
Cells: MES-SA/Dx5 cell line (Sigma, catalogue no 95051031) is a uterine sarcoma, derived from parent MES-SA cell line (Sigma, catalogue no 95051030), was used in this study.
Mice: 5-6-week-old female nude mice (Charles River) were used in this study.
All animal maintenance, handling, surveillance, and animal procedures were performed in accordance with and approval from the APLAC protocol.
MES-SA/Dx5 subcutaneous tumors: Once tumors reached 100-150 mm^3, mice were randomized into six groups of five mice each—(i) Control isotype IgG1 3 mg/kg, (ii) Control isotype IgG1 3 mg/kg and 20 mg/kg of paclitaxel, (iii) KNJYBisP1.1 3 mg/kg, (iv) KNJYBisP1.1 3 mg/kg and 20 mg/kg of paclitaxel, (v) KNJYBisP1.1 LALAPG 3 mg/kg and (vi) KNJYBisP1.1 LALAPG 3 mg/kg and 20 mg/kg of paclitaxel. Antibody and paclitaxel were dosed intraperitoneally twice a week for two consecutive weeks. […]

“KBisP1.1: bispecific anti-MDR1/anti-CD47 antibody: 15D3 heavy chain, 5F9 (KT14) heavy chain, common MRK16 light chain, human IgG1”: the tumor volume result in the test on HeyT30 cells (higher concentration of the antibody) is “efficacious with and without paclitaxel”; in the test on HeyT30 cells (lower concentration of the antibody) it was “efficacious in reducing HeyT30 MDR cancer cell tumor volume with paclitaxel”. Moreover, the “binding to cynomolgus erythrocytes” value in the test with cynomolgus RBCs is “no significant binding”. For the same substance, the “chemosensitizing effect compared with monospecific antibodies” value with MES-SA/Dx5 cells (3 mg/kg with paclitaxel 20 mg/kg, FIG. 29) is “stronger than either the 15D3 hybridoma or KT14 monoclonal antibodies”. Also, the “chemosensitization of MES-SA/Dx5 tumors to paclitaxel” value in the test on MES-SA/Dx5 cells (antibody 3 mg/kg, paclitaxel 20 mg/kg) is given as “chemosensitizes”.
